Laboratory results reported in the NIST ThermoML archive (doi:10.1016/j.jct.2004.05.008).

How the values were obtained:
[1] = Crystal
[2] = Molar enthalpy of transition or fusion; conditions: Crystal
[3] = molar heat capacity at constant pressure; conditions: 101.33 kPa, Crystal

O=C1OC(=O)C2=C1CCCC2 [3,4,5,6-tetrahydrophthalic anhydride]
Conditions	Molar enthalpy of transition or fusion [kcal/mol]	Triple point temperature [K]
[1]	–	343.46
[2]	2.839	–

[3]
Conditions	molar heat capacity at constant pressure [J/K/mol]
80.34 K	56.23
83.47 K	56.18
86.53 K	56.31
89.58 K	56.4
92.48 K	56.87
95.3 K	57.18
98.08 K	57.46
100.82 K	57.84
103.56 K	57.96
106.09 K	58.31
108.63 K	58.53
111.12 K	58.74
113.61 K	59.12
116.02 K	59.31
118.43 K	59.66
120.75 K	60.05
123.08 K	60.42
125.35 K	60.99
127.64 K	61.14
129.84 K	61.87
132.12 K	62.27
134.33 K	62.87
136.53 K	63.57
138.65 K	64.15
140.81 K	64.74
142.92 K	65.78
145.08 K	66.49
147.12 K	67.22
149.15 K	68.03
151.27 K	69
153.3 K	69.87
155.3 K	70.76
157.37 K	71.32
159.37 K	72.03
161.36 K	72.91
163.27 K	73.95
165.22 K	74.97
167.13 K	76.01
169.12 K	76.73
171.05 K	77.91
172.94 K	78.5
174.85 K	79.78
176.72 K	80.51
178.63 K	81.53
180.46 K	82.71
182.28 K	83.6
184.11 K	84.61
185.95 K	85.45
187.77 K	86.62
189.63 K	87.81
191.38 K	88.82
193.21 K	89.85
194.95 K	91.18
196.74 K	92.52
198.56 K	93.84
200.32 K	95.12
202.04 K	96
203.79 K	97.45
205.5 K	99.08
207.28 K	100.34
208.94 K	101.59
210.65 K	102.87
212.31 K	103.87
214.01 K	105.32
215.67 K	106.26
217.29 K	107.56
218.95 K	108.78
220.53 K	109.96
